# Assay results: patent US20060019971A1, “Treatment of cardiovascular disease with inhibitors of p38 kinase” (priority 2003, published 2006)
# Entries after “also recorded” stand apart in the source; their conditions may differ.
# Assays:
# Assay type in all cases: cell-based, human
# [1] = system: IL-6 mRNA in HPBMCs; assay: IL-6 gene expression in HPBMCs, real-time PCR; settings: 1 μM SD, 6 hours
# Description: FIG. 2(a) illustrates both the effect of CRP on IL-6 secretion from HPBMCs and its modulation by a p38 inhibitor. 8×10^5 HPBMCs were plated in 96-well. After 1 hour medium was removed and cells were incubated with or without 10 μg/ml of purified human CRP in serum-free RPMI 1640. In parallel experiments cells were treated with 10% FCS together with the CRP treatment. For the p38 antagonism, the p38 inhibitor was added to a final concentration of 1 μM in the parallel treatment. After 6 hours the conditioned medium was collected and IL-6 and IL-8 levels were determined by ELISA. FIG. 2(b) illustrates the effects of p38 inhibitor concentration on CRP induced IL-6 secretion from HPBMCs. 3×10^5 HPBMCs were plated in 96-well. After 1 hour medium was removed and cells were incubated with 10 μg/ml of purified human CRP plus 10% FCS in the presence of varying concentrations of p38 inhibitor. After 4 hours conditioned medium were collected and IL-6 level was determined by ELISA. […] After 6 hours RNA was extracted from the cells and IL-6 expression level was determined by real-time PCR as described in Experimental section. […]
# (§1) RNA was extracted from the cells using Qiagen RNA extraction kit according to the manufacturer's instruction. The expression of pro-inflammatory genes IL-1β, IL-6, IL-8, TNFα, COX-2, ET-1, TF were assessed by real-time PCR. […]
# [2] = system: IL-8 secretion from HPBMCs; assay: IL-8 secretion from HPBMCs, ELISA; settings: 1 μM SD pre-treatment, all the conditions (control, CRP, FCS, CRP plus FCS), 6 hours
# Description: 8×10^5 HPBMCs were plated in 96-well. After 1 hour medium was removed and cells were incubated with or without 10 μg/ml of purified human CRP in serum-free RPMI 1640. In parallel experiments cells were treated with 10% FCS together with the CRP treatment. For the p38 antagonism, p38 inhibitor was added to a final concentration of 1 μM in the parallel treatment. After 6 hours conditioned medium were collected and IL-6 and IL-8 levels were determined by ELISA. […] 5×10^6 HPBMCs were plated in 6-well. After 1 hour medium was removed and cells were treated with vehicle or 1 μM p38 inhibitor in RPMI 1640 medium. After 1 hour cells were stimulated with 10% FCS only or 10 μg/ml CRP plus 10% FCS. After 2 hours RNA was extracted from the cells and IL-8 expression level was determined by real-time PCR as described in the Experimental section.
# Cryopreserved human peripheral blood monocytes (HPBMCs, from Biowitker, Walkersvill, Md.) were thawed and washed twice in RPMI 1640. Cells were plated in tissue culture plates and incubated in 5% CO2 at 37 C. […]
# Conditioned media from the treated cells were collected (6 to 20 hrs), and the level of secreted interleukin 6 (IL-6), interleukin 1 beta (IL-1 β), tumor necrosis factor alpha (TNFα), and interleukin 8 (IL-8) was determined by ELISA according to the manufacturer's instruction (Biosource International, Camarillo, Calif.). […]
# [3] = system: TF mRNA in HPBMCs; assay: Tissue Factor mRNA expression in HPBMCs, real-time PCR; settings: 1 μM SD, 6 hours
# Description: The figures illustrate the effects of CRP on TF protein and mRNA expression in HPBMCs and their modulation by p38 inhibitor. 1.5×10^6 HPBMCs were plated in 48-well. After 1 hour medium was removed and cells were incubated with or without 10 μg/ml of purified human CRP in serum-free RPMI 1640. In parallel experiments, cells were treated with 10% FCS together with the CRP treatment. For the p38 antagonism, p38 inhibitor was added to a final concentration of 1 μM in the parallel treatment. After 16 hours cells were lysed and TF protein level was determined by Western blot. TF signal was normalized by GAPDH signal. As shown in FIG. 7(c), after 6 hours TF mRNA level were determined by real-time PCR as described in the Experimental section. […]
# as §1
# Real-time RT-PCR was performed in a two-step manner. cDNA synthesis and real-time detection were carried out in a PTC-100™ Thermal Cycler (MJ Research Inc, Waltham, Mass.) and an ABI Prism™ 7700 Sequence Detection System (Applied Biosystems, Foster City, Calif.), respectively. […] Relative quantitation of gene expression was performed using the relative standard curve method. […]
smiles,measurement,setting,value
C[C@@H]1CN(Cc2ccc(F)cc2)[C@@H](C)CN1C(=O)c1cc2c(C(=O)C(=O)N(C)C)c[nH]c2cc1Cl [Compound 162],inhibition of FCS invoked IL-6 mRNA expression,[1],almost completely blocked
same,inhibition of CRP invoked IL-6 mRNA expression,[1]; CRP plus 10% FCS,almost completely blocked
same,inhibition of IL-8 secretion,[2],almost completely inhibited
same,inhibition of basal TF mRNA expression,[3],almost completely inhibitied
same,inhibition of CRP induced TF mRNA expression,[3]; listed as SD,almost completely inhibitied; also recorded: blocked
